Reference: paper PMC4359714 (Naunyn-Schmiedeberg's Archives of Pharmacology, 2015)
Like-named read-outs stand apart in the source and are kept apart here.

What was measured:
CFA-injected rats = test: CFA-induced hypersensitivity (rearing on prickly floor); type: in vivo, rat; conditions: 100 mg/kg p.o.; p > 0.05 vs CFA vehicle ([…] s)
Protocol: Rats were habituated in a reversed light cycle room for at least 1 week and to the testing room for 1 h prior to dosing. […] Twenty-one hours after the CFA injection, animals were treated (p.o.) with vehicle (5 % Tween 80 in OraPlus®) or TRPM8 antagonist. Two hours after drug dosing (23 h after CFA injection), rats were placed in the same Kinder Scientific open field boxes as described above but with customized prickly floor inserts placed inside. Rearing time and rearing counts were measured for 60 min.

rat TRPA1 = biological target: T1, rat TRPA1 (Rattus norvegicus, UniProt Q6RI86); test: Luminescence (aequorin) readout of intracellular calcium, CHO cells expressing rat TRPA1, AITC activation; type: cell-based
T1 construct: expressed in transfected cells; host or cells: CHO, T-REx tetracycline-inducible system (Invitrogen), co-transfected with aequorin
Source text: Stable Chinese hamster ovary (CHO) cell lines expressing rat TRPA1, rat TRPM8, rat TRPV3, and human TRPV4 were generated using the tetracycline-inducible T-REx™ expression system from Invitrogen (Carlsbad, CA) and a stable CHO cell line expressing rat TRPV1 was generated using a constitutive expression system (Klionsky et al. [2007]). To enable a luminescence readout based on intracellular increase in calcium (Le Poul et al. [2002]), each cell line was also co-transfected with pcDNA3.1 plasmid containing jelly fish aequorin cDNA. Twenty-four hours before the assay, cells were seeded in 96-well plates and all TRP channel expression, except for TRPV1, was induced with 0.5 ug/mL tetracycline. […] Luminescence was measured by a CCD camera-based FLASH-luminometer built by Amgen, Inc. The following agonists were used to activate TRP channels: 0.5 uM capsaicin for TRPV1, 80 uM allyl isothiocyanate (AITC) for TRPA1, 1 uM icilin or cold buffer (12 °C) for TRPM8, 200 uM aminoethoxydiphenyl borate (2-APB) for TRPV3, and 1 uM 4α-phorbol 12,13-didecanoate (4α-PDD) for TRPV4. Antagonist IC50 values were calculated using GraphPad Prism 4.01 (GraphPad Software Inc, San Diego, CA).

cutaneous C fibers = test: Skin-nerve preparation, mechanically induced firing in cutaneous C fibers; parameters: species or system mouse; conditions: 10 μM; sustained force 5-245 mN; compared to vehicle
Source text: Adult C57BL/6 mice were obtained from Jackson Laboratories and used for ex vivo skin-nerve preparations. Mice were allowed to acclimate to the animal facility at the Medical College of Wisconsin, an Association for the Assessment and Accreditation of Laboratory Animal […] (AALAC)-accredited facility, for approximately 1 week following shipment. Animals were housed with up to four other cagemates and had ad libitum access to food pellets and hyper-chlorinated water. Mice were housed on a 14:10 h light-dark cycle in cages containing aspen bedding and paper nesting material. Room temperatures averaged 21 °C. Prior to use, animals were briefly anesthetized with inhaled isoflurane and then sacrificed via cervical dislocation.
The mouse saphenous skin-nerve in vitro preparation (Koltzenburg et al. [1997]; Stucky et al. [1999]) was used for electrophysiological recordings of cutaneous terminals of primary afferent fibers in situ. […] Once a unit with a signal to noise ratio >2 was identified, the mechanical threshold was determined using calibrated von Frey filaments (range, 0.44–147.0 mN). […]
Wave forms of action potentials evoked by mechanical stimuli were saved on an oscilloscope for comparison of shape and profile. […] Action potentials were discriminated and counted off-line using a spike histogram software extension. […] All data was also analyzed in a blinded manner.

T1 sequence (Q6RI86 whole entry): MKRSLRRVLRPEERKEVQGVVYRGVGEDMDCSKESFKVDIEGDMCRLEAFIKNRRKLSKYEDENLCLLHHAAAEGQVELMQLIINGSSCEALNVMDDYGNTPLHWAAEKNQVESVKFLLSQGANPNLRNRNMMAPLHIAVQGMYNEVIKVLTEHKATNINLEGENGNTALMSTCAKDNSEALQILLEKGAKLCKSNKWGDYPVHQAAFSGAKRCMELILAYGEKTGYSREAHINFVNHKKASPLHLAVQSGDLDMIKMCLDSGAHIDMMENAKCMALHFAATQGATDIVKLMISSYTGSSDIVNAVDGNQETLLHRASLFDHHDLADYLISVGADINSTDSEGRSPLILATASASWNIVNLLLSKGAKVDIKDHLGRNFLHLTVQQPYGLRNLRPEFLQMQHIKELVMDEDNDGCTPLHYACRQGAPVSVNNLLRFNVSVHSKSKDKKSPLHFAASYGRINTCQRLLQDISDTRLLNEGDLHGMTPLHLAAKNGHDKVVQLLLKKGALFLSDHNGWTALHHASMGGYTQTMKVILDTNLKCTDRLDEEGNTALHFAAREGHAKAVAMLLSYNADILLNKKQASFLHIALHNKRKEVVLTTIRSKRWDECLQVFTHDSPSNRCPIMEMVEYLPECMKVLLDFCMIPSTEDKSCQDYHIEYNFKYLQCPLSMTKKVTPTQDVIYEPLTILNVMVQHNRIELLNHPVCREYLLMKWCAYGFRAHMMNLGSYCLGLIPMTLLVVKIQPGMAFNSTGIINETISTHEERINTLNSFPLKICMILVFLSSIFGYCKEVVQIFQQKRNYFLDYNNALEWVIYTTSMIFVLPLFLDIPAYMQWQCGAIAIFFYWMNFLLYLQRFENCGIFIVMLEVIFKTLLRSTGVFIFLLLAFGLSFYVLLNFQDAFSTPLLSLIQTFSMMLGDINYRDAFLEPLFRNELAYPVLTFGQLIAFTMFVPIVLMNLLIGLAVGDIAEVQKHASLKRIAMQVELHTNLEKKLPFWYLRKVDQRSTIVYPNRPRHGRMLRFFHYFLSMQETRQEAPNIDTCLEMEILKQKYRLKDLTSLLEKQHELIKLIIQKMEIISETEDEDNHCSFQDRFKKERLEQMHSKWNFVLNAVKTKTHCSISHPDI

`C[C@H](NC(=O)N1CCc2cccnc2[C@H]1c1ccc(C(F)(F)F)cc1)C(F)(F)F` [AMG2850, (R)-8-(4-(trifluoromethyl)phenyl)-N-((S)-1,1,1-trifluoropropan-2-yl)-5,6-dihydro-1,7-naphthyridine-7(8H)-carboxamide] was tested. Which “rearing time, CFA model” value (CFA-injected rats) did it give?
Its value is 157 ± 25 s.

What about the IC50 (rat TRPA1; 80 uM AITC, read-out: rTRPA1 IC50) of the same compound?
Its IC50 is > 25 µM.

What about the IC50 (rat TRPA1; agonism, read-out: rTRPA1 agonism IC50) of the same compound?
The IC50 was > 25 µM.

And the “effect on mechanical firing in C fibers” value (cutaneous C fibers)?
The value was “no significant effect”.
